# Data reported in PubChem BioAssay (NCI).
#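 Cells were grown in 96-well plates and exposed to each compound for 48 hours at five concentrations; endpoints were interpolated linearly between bracketing concentrations, or set to the highest concentration if not reached. TGI: concentration producing complete growth inhibition.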
# Key:
# Assay in all cases: DTP human tumour cell line panel, 48 h
# [1] = system: MDA-N
# [2] = system: MALME-3M melanoma
# [3] = system: ACHN renal
# [4] = system: 786-0 renal
# [5] = system: EKVX NSCLC
# [6] = system: KM12 colon
# [7] = system: SF-539 CNS
# [8] = system: SK-MEL-5 melanoma
# [9] = system: SF-268 CNS
# [10] = system: NCI-H522 lung
# [11] = system: A549 NSCLC
# [12] = system: CCRF-CEM leukemia
Compound,TGI [1] [µM],TGI [2] [µM],TGI [3] [µM],TGI [4] [µM],TGI [5] [µM],TGI [6] [µM],TGI [7] [µM],TGI [8] [µM],TGI [9] [µM],TGI [10] [µM],TGI [11] [µM],TGI [12] [µM]
C=C(C)C1CC2=C(O1)C(=O)c1cccc(O)c1C2=O (stereo unspecified),0.132,2.31,3.23,> 100,2.52,3.27,1.89,0.304,1.47,1.73,4.9,–
COc1ccc(/C=C2/SC(c3c(O)ccc4ccccc34)N(NC(=O)CCCCCCCCC(=O)NN3C(=O)/C(=C\c4ccc(OC)c(OC)c4)SC3c3c(O)ccc4ccccc34)C2=O)cc1OC (stereo unspecified),> 100,51.4,> 54.1,> 20.5,> 100,> 100,46,2.29,> 100,> 100,> 21.4,–
NS(=O)(=O)c1nnc(NC(=O)/C=C/C(=O)O)s1,> 100,> 100,> 100,> 100,> 100,> 100,> 100,> 100,> 100,> 100,> 100,–
C=CCN(c1cc(OC)c2c(c1[N+](=O)[O-])C(C)(SC)C(=O)N2)S(C)(=O)=O (stereo unspecified),> 100,> 100,> 100,> 100,–,> 100,> 100,> 100,> 100,> 100,> 100,–
C(/C=C/Nc1ccc(-c2ccccc2)cc1)=Nc1ccc(-c2ccccc2)cc1,> 100,–,> 100,> 100,> 100,> 100,> 100,> 100,> 100,> 100,> 100,> 100
CCOC(=O)/C=C(/C(=O)OCC)n1ccc(=O)n(CC(=O)OCC)c1=O,8.31,1.71,1.76,1.67,4.87,7.95,7.88,6.21,10.9,0.624,16.8,–
COc1ccc2c(c1)C(=O)[C@@](Nc1ccc(C=O)cc1)(OC)[C@@](OC)(c1ccc([N+](=O)[O-])cc1)O2,> 10,> 10,> 10,> 10,> 10,> 10,> 10,> 10,> 10,–,> 10,> 10
